We go through 17 molecules from paper PMC8986778, “Citrullination of glucokinase is linked to autoimmune diabetes” (Nature Communications, 2022).

Non-standard residues stand in square brackets, D forms with d. Residues, ends and D or L forms follow the SMILES beside them. Cit = NC(=O)NCCC[C@H](N)C(=O)O

The target in one test is T1, DR0401 protein (Homo sapiens, UniProt P01903+P01911, A100K/A169T/F76Y/I96L/K127E/L162R/M171V/N62H/P40V/Q125Y/R42H/S133A/S149N/S66Y/V115G/V209L/W38E).
T1 construct: made in house; host or cells: insect cell cultures
Description: DR0401 peptide binding competition assay. The settings on record: Supplementary Table 2; competition with biotin-HA306-318 0.02 μM; read-out: IC50 (Binding of Predicted Glucokinase Peptides to DR04:01).
Broadly, the IC50 is the concentration that inhibits the measured activity by half. For `CSCC[C@H](NC(=O)[C@H](CCCCN)NC(=O)[C@@H](NC(=O)[C@H](CO)NC(=O)[C@H](C)NC(=O)[C@H](CCC(=O)O)NC(=O)[C@H](CCC(=O)O)NC(=O)[C@H](Cc1c[nH]cn1)NC(=O)[C@@H](NC(=O)[C@H](CCC(=O)O)NC(=O)[C@H](CC(C)C)NC(=O)[C@H](CCCNC(N)=O)NC(=O)[C@H](CC(C)C)NC(=O)CN)[C@@H](C)O)C(C)C)C(=O)N[C@@H](CC(C)C)C(=O)O` [GK 44-58] (H-GL[Cit]LETHEEASVKML-OH; N-terminus and C-terminus assumed), the IC50 is more than 50 µM. On to `CSCC[C@H](NC(=O)[C@H](CCCCN)NC(=O)[C@@H](NC(=O)[C@@H](N)CO)C(C)C)C(=O)N[C@@H](CC(C)C)C(=O)N1CCC[C@H]1C(=O)N[C@H](C(=O)N[C@@H](Cc1ccc(O)cc1)C(=O)N[C@H](C(=O)N[C@@H](CCCNC(N)=O)C(=O)N[C@@H](CO)C(=O)N[C@H](C(=O)N1CCC[C@H]1C(=O)N[C@@H](CCC(=O)O)C(=O)NCC(=O)O)[C@@H](C)O)C(C)C)[C@@H](C)O` [GK 54-68] (H-SVKMLPTYV[Cit]STPEG-OH; N-terminus and C-terminus assumed), for which the IC50 is more than 50 µM. With `CC(C)C[C@H](N)C(=O)N1CCC[C@H]1C(=O)N[C@H](C(=O)N[C@@H](Cc1ccc(O)cc1)C(=O)N[C@H](C(=O)N[C@@H](CCCNC(N)=O)C(=O)N[C@@H](CO)C(=O)N[C@H](C(=O)N1CCC[C@H]1C(=O)N[C@@H](CCC(=O)O)C(=O)NCC(=O)N[C@@H](CO)C(=O)N[C@@H](CCC(=O)O)C(=O)N[C@H](C(=O)NCC(=O)O)C(C)C)[C@@H](C)O)C(C)C)[C@@H](C)O` [GK 58-72] (H-LPTYV[Cit]STPEGSEVG-OH), the IC50 is 30.9 µM. As to `CSCC[C@H](NC(=O)[C@@H](NC(=O)[C@H](CCCNC(=N)N)NC(=O)[C@H](Cc1ccccc1)NC(=O)[C@H](CC(N)=O)NC(=O)[C@@H](NC(=O)CN)[C@@H](C)O)C(C)C)C(=O)N[C@@H](CC(C)C)C(=O)N[C@H](C(=O)N[C@@H](CCCCN)C(=O)N[C@H](C(=O)NCC(=O)N[C@@H](CCC(=O)O)C(=O)NCC(=O)N[C@@H](CCC(=O)O)C(=O)O)C(C)C)C(C)C` [GK 81-95] (H-GTNFRVMLVKVGEGE-OH), the IC50 was 15.3 µM. `CC[C@H](C)[C@H](NC(=O)[C@H](CS)NC(=O)[C@H](CCC(=O)O)NC(=O)[C@H](CO)NC(=O)[C@@H](NC(=O)[C@H](Cc1ccc(O)cc1)NC(=O)[C@H](CC(=O)O)NC(=O)[C@H](Cc1ccccc1)NC(=O)[C@H](CC(C)C)NC(=O)[C@H](CCSC)NC(=O)[C@@H](N)CCC(=O)O)[C@@H](C)CC)C(=O)N[C@@H](CO)C(=O)N[C@@H](CC(=O)O)C(=O)N[C@@H](Cc1ccccc1)C(=O)N[C@@H](CC(C)C)C(=O)O` [GK 120-134] (H-EMLFDYISECISDFL-OH): the IC50 was 40.1 µM.

With `CSCC[C@H](NC(=O)[C@H](Cc1ccc(O)cc1)NC(=O)[C@H](CS)NC(=O)[C@H](C)NC(=O)[C@@H](N)CC(N)=O)C(=O)N[C@@H](CCC(=O)O)C(=O)N[C@@H](CCC(=O)O)C(=O)N[C@@H](CCSC)C(=O)N[C@@H](CCC(N)=O)C(=O)N[C@@H](CC(N)=O)C(=O)N[C@H](C(=O)N[C@@H](CCC(=O)O)C(=O)N[C@@H](CC(C)C)C(=O)N[C@H](C(=O)N[C@@H](CCC(=O)O)C(=O)O)C(C)C)C(C)C` [GK 231-245] (H-NACYMEEMQNVELVE-OH), the IC50 is 0.03 µM.

In the case of `CSCC[C@H](NC(=O)[C@H](Cc1ccc(O)cc1)NC(=O)[C@H](CCCCN)NC(=O)CNC(=O)CN)C(=O)NCC(=O)N[C@@H](CCC(=O)O)C(=O)N[C@@H](CC(C)C)C(=O)N[C@H](C(=O)N[C@@H](CCCNC(N)=O)C(=O)N[C@@H](CC(C)C)C(=O)N[C@H](C(=O)N[C@@H](CC(C)C)C(=O)N[C@@H](CC(C)C)C(=O)N[C@@H](CCCNC(=N)N)C(=O)O)C(C)C)C(C)C` [GK 294-308] (H-GGKYMGELV[Cit]LVLLR-OH), the IC50 is 4.3 µM. Take `CC(C)C[C@H](NC(=O)[C@H](CCC(N)=O)NC(=O)[C@H](CCC(=O)O)NC(=O)[C@H](CO)NC(=O)[C@H](C)NC(=O)[C@H](CCC(=O)O)NC(=O)CNC(=O)[C@H](Cc1c[nH]cn1)NC(=O)[C@H](Cc1ccccc1)NC(=O)[C@H](CC(C)C)NC(=O)[C@H](CC(C)C)NC(=O)[C@H](CC(N)=O)NC(=O)[C@H](CCC(=O)O)NC(=O)[C@@H](N)CC(=O)O)C(=O)O` [GK 311-324] (H-DENLLFHGEASEQL-OH; N-terminus and C-terminus assumed): the IC50 is more than 50 µM.

Consider `CC(C)C[C@H](NC(=O)[C@H](CCC(N)=O)NC(=O)[C@H](CCC(=O)O)NC(=O)[C@H](CO)NC(=O)[C@H](C)NC(=O)[C@H](CCC(=O)O)NC(=O)CNC(=O)[C@H](Cc1c[nH]cn1)NC(=O)[C@H](Cc1ccccc1)NC(=O)[C@H](CC(C)C)NC(=O)[C@H](CC(C)C)NC(=O)[C@@H](N)CC(N)=O)C(=O)N[C@@H](CCCNC(N)=O)C(=O)N[C@H](C(=O)N[C@@H](CCCNC(=N)N)C(=O)O)[C@@H](C)O` [GK 313-327] (H-NLLFHGEASEQL[Cit]TR-OH; N-terminus and C-terminus assumed), for which the IC50 is more than 50 µM. Turning to `CC(C)[C@H](NC(=O)[C@H](CCC(N)=O)NC(=O)[C@H](CO)NC(=O)[C@@H](NC(=O)[C@H](Cc1ccccc1)NC(=O)[C@H](CCCNC(N)=O)NC(=O)[C@@H](NC(=O)[C@H](CCC(=O)O)NC(=O)[C@H](Cc1ccccc1)NC(=O)[C@H](C)NC(=O)CNC(=O)[C@@H](N)CCCNC(=N)N)[C@@H](C)O)C(C)C)C(=O)N[C@@H](CCC(=O)O)C(=O)N[C@@H](CO)C(=O)N[C@@H](CC(=O)O)C(=O)O` [GK 327-341] (H-RGAFET[Cit]FVSQVESD-OH; N-terminus and C-terminus assumed), the IC50 is more than 50 µM. As to `CC(C)[C@H](NC(=O)[C@H](CCC(N)=O)NC(=O)[C@H](CO)NC(=O)[C@@H](NC(=O)[C@H](Cc1ccccc1)NC(=O)[C@H](CCCNC(N)=O)NC(=O)[C@@H](NC(=O)[C@@H](N)CCC(=O)O)[C@@H](C)O)C(C)C)C(=O)N[C@@H](CCC(=O)O)C(=O)N[C@@H](CO)C(=O)N[C@@H](CC(=O)O)C(=O)N[C@H](C(=O)NCC(=O)N[C@@H](CC(=O)O)C(=O)O)[C@@H](C)O` [GK 331-344] (H-ET[Cit]FVSQVESDTGD-OH; N-terminus and C-terminus assumed), the IC50 was more than 50 µM.

Still in this test, the particulars now being: Supplementary Table 3; competition with biotin-HA306-318 0.02 μM; representative values from two replicate experiments; read-out: IC50 (Effect of Citrulline or Arg Substitution).
`CC(C)C[C@H](NC(=O)[C@H](CC(C)C)NC(=O)[C@H](Cc1ccccc1)NC(=O)[C@H](CCC(=O)O)NC(=O)[C@H](CC(=O)O)NC(=O)[C@@H](N)CC(C)C)C(=O)N[C@@H](CCC(=O)O)C(=O)N[C@@H](Cc1ccc(O)cc1)C(=O)N[C@@H](CC(=O)O)C(=O)N[C@@H](CCCNC(N)=O)C(=O)N[C@@H](CC(C)C)C(=O)N[C@H](C(=O)N[C@@H](CC(=O)O)C(=O)N[C@@H](CCC(=O)O)C(=O)N[C@@H](CO)C(=O)O)C(C)C` [GK 266 Cit] (H-LDEFLLEYD[Cit]LVDES-OH): the IC50 turned out to be 9.5 µM. On to `CC(C)C[C@H](NC(=O)[C@H](CCCNC(N)=O)NC(=O)[C@H](CC(=O)O)NC(=O)[C@H](Cc1ccc(O)cc1)NC(=O)[C@H](CCC(=O)O)NC(=O)[C@H](CC(C)C)NC(=O)[C@@H](N)CC(C)C)C(=O)N[C@H](C(=O)N[C@@H](CC(=O)O)C(=O)N[C@@H](CCC(=O)O)C(=O)N[C@@H](CO)C(=O)N[C@@H](CO)C(=O)N[C@@H](C)C(=O)N[C@@H](CC(N)=O)C(=O)N1CCC[C@H]1C(=O)O)C(C)C` [GK 270 Cit] (H-LLEYD[Cit]LVDESSANP-OH), for which the IC50 worked out at 8.6 µM.

The same test, now with this note: Table 1; competition with biotinylated HA306-318 reference peptide at 0.02 μM in DR0401-coated wells; europium-streptavidin time resolved fluorescence; concentration that displaces half of the reference peptide; read-out: IC50 (binding to DR0401).
Turning to `CSCC[C@H](NC(=O)[C@H](C)NC(=O)[C@@H](NC(=O)[C@@H](NC(=O)[C@H](CC(=O)O)NC(=O)[C@H](CCSC)NC(=O)[C@H](CCC(=O)O)NC(=O)[C@H](Cc1ccccc1)NC(=O)[C@H](CC(=O)O)NC(=O)CNC(=O)[C@@H](N)CCCNC(=N)N)C(C)C)C(C)C)C(=O)N[C@H](C(=O)N[C@@H](CC(N)=O)C(=O)N[C@@H](CC(=O)O)C(=O)N[C@H](C(=O)O)[C@@H](C)O)C(C)C` [GK 192] (H-RGDFEMDVVAMVNDT-OH), the IC50 was 0.35 µM. As to `CC[C@H](C)[C@H](NC(=O)[C@H](CCSC)NC(=O)[C@@H](NC(=O)[C@H](C)NC(=O)[C@@H](NC(=O)[C@@H](NC(=O)[C@H](CC(=O)O)NC(=O)[C@H](CC(N)=O)NC(=O)[C@@H](NC(=O)[C@H](CCSC)NC(=O)[C@H](C)NC(=O)[C@@H](NC(=O)[C@@H](N)C(C)C)C(C)C)C(C)C)[C@@H](C)O)C(C)C)[C@@H](C)O)C(=O)N[C@@H](CO)C(=O)N[C@@H](CS)C(=O)N[C@@H](Cc1ccc(O)cc1)C(=O)O` [GK 199] (H-VVAMVNDTVATMISCY-OH), the IC50 amounted to 2.5 µM. As for `CC(C)C[C@H](NC(=O)[C@H](CC(C)C)NC(=O)[C@H](Cc1ccccc1)NC(=O)[C@H](CCC(=O)O)NC(=O)[C@H](CC(=O)O)NC(=O)[C@@H](N)CC(C)C)C(=O)N[C@@H](CCC(=O)O)C(=O)N[C@@H](Cc1ccc(O)cc1)C(=O)N[C@@H](CC(=O)O)C(=O)N[C@@H](CCCNC(=N)N)C(=O)N[C@@H](CC(C)C)C(=O)N[C@H](C(=O)N[C@@H](CC(=O)O)C(=O)N[C@@H](CCC(=O)O)C(=O)N[C@@H](CO)C(=O)O)C(C)C` [GK 266] (H-LDEFLLEYDRLVDES-OH), the IC50 is 5.6 µM.

On to `CC(C)C[C@H](NC(=O)[C@H](CCCNC(=N)N)NC(=O)[C@H](CC(=O)O)NC(=O)[C@H](Cc1ccc(O)cc1)NC(=O)[C@H](CCC(=O)O)NC(=O)[C@H](CC(C)C)NC(=O)[C@@H](N)CC(C)C)C(=O)N[C@H](C(=O)N[C@@H](CC(=O)O)C(=O)N[C@@H](CCC(=O)O)C(=O)N[C@@H](CO)C(=O)N[C@@H](CO)C(=O)N[C@@H](C)C(=O)N[C@@H](CC(N)=O)C(=O)N1CCC[C@H]1C(=O)O)C(C)C` [GK 270] (H-LLEYDRLVDESSANP-OH), for which the IC50 stood at 2 µM.
